In experiment [1] the test system is HL-60(TB). Also on record: method as in https://dtp.cancer.gov/dtpstandard/dwindex/index.jsp. The note with it: ref https://dtp.cancer.gov/dtpstandard/dwindex/index.jsp; cited from earlier work.
In experiment [2] the test system is HOP-92. Further details: method as in https://dtp.cancer.gov/dtpstandard/dwindex/index.jsp. The note with it: ref https://dtp.cancer.gov/dtpstandard/dwindex/index.jsp; cited from earlier work.
Experiment [3] has as its system HCT-116. Further details: method as in https://dtp.cancer.gov/dtpstandard/dwindex/index.jsp. To be noted: ref https://dtp.cancer.gov/dtpstandard/dwindex/index.jsp; cited from earlier work.
Experiment [4] relates to ACHN. Kind of experiment: NCI anticancer screening (SRB), Renal Cancer subpanel. The experiment is classed as cell-based, human. The note with it: for GI%: 10.0 µM in one dose.
Experiment [5] concerns SN12C. Described as above. The format is cell-based, human. The note with it: for GI%: 10.0 µM in one dose.
For experiment [6], the system named is EKVX. The experiment in a line: NCI anticancer screening (SRB), Non-Small Cell Lung Cancer subpanel. The format is cell-based, human. The note with it: for GI%: 10.0 µM in one dose.
In experiment [7] the test system is U251. Kind of experiment: NCI anticancer screening (SRB), CNS Cancer subpanel. The experiment is classed as cell-based, human. The note with it: for GI%: 10.0 µM in one dose.
For experiment [8], the target named is HER2 (Homo sapiens, UniProt P04626). The experiment in a line: HER2 tyrosine kinase inhibition assay (ADP-Glo). In general terms: ADP-Glo turns the ADP formed in a reaction into a luminescent signal.
HER2, sequence (P04626 23-1255): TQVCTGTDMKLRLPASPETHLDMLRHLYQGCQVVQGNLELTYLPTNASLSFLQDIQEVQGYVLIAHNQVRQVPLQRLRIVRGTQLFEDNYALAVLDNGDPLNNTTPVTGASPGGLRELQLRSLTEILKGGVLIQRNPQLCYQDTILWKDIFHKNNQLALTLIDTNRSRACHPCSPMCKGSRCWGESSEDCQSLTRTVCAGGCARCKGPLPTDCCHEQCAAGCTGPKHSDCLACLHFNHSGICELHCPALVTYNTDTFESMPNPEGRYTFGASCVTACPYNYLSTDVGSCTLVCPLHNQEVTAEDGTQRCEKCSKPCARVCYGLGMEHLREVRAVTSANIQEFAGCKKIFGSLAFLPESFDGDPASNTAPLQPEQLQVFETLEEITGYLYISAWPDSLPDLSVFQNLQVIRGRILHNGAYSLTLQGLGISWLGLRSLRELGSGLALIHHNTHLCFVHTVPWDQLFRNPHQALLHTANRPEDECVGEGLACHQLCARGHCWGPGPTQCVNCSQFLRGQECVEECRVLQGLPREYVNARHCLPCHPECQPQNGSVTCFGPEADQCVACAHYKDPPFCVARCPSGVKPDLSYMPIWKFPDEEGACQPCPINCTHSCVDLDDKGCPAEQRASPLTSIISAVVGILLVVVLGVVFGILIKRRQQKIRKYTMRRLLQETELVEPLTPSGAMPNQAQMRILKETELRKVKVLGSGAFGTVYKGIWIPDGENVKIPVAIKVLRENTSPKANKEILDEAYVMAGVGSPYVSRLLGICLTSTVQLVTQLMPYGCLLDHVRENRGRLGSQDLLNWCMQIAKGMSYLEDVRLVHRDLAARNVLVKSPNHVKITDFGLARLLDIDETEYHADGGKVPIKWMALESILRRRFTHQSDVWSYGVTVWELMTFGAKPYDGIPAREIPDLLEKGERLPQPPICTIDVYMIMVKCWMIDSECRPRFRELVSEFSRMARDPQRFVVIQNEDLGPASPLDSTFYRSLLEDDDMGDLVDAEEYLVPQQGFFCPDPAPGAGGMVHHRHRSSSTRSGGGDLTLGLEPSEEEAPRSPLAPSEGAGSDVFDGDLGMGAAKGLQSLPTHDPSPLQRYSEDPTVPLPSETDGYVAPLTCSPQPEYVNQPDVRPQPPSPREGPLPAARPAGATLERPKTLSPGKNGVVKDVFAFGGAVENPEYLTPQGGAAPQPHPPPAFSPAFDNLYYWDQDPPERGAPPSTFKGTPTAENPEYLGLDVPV
For experiment [9], the system named is NCI-H226. Kind of experiment: NCI anticancer screening (SRB), Non-Small Cell Lung Cancer subpanel. The experiment is classed as cell-based, human. The note with it: for GI%: 10.0 µM in one dose.
The test system of experiment [10] is UO-31. The experiment in a line: NCI anticancer screening (SRB), Renal Cancer subpanel. The format is cell-based, human. To be noted: for GI%: 10.0 µM in one dose.
In experiment [11] the test system is HL-60(TB). The experiment in a line: NCI anticancer screening (SRB), Leukemia subpanel. The format is cell-based, human. To be noted: for GI%: 10.0 µM in one dose.
For experiment [12], the system named is MDA-MB-468. The experiment in a line: NCI anticancer screening (SRB), Breast Cancer subpanel. The experiment is classed as cell-based, human. To be noted: for GI%: 10.0 µM in one dose.
The test system of experiment [13] is HCC-2998. Kind of experiment: NCI anticancer screening (SRB), Colon Cancer subpanel. The format is cell-based, human. The note with it: for GI%: 10.0 µM in one dose.
Experiment [14] relates to UACC-62. The experiment in a line: NCI anticancer screening (SRB), Melanoma subpanel. The format is cell-based, human. To be noted: for GI%: 10.0 µM in one dose.
Experiment [15] has as its system LOX IMVI. The experiment in a line: NCI anticancer screening (SRB), Melanoma subpanel. The experiment is classed as cell-based, human. The note with it: for GI%: 10.0 µM in one dose.
The subject of experiment [16] is IGROV1. Kind of experiment: NCI anticancer screening (SRB), Ovarian Cancer subpanel. To be noted: for GI%: 10.0 µM in one dose. The experiment is classed as cell-based, human.
The test system of experiment [17] is SR. The experiment in a line: NCI anticancer screening (SRB), Leukemia subpanel. To be noted: for GI%: 10.0 µM in one dose. The format is cell-based, human.
The subject of experiment [18] is Bcl-2. The experiment in a line: Apoptotic markers assay, Bcl-2 expression in MCF-7 cells. The experiment is classed as cell-based, human. The note with it: MCF-7 cells treated at IC50 concentrations; vs untreated control = 1. How it is done: We measured the apoptosis promoter Bax levels, the apoptosis inhibitor Bcl−2, and the apoptosis coordination enzymes caspase-8 and caspase-9 [32].
The apoptotic marker method was carried out using the reported procedure using MCF-7, the cancer cell line (Supplementary Materials). […]
photomultiplier voltage and for compensation setting adjustment to eliminate spectral overlap between the FL1 and the FL2 signals.
6. Cell cycle analysis
Breast carcinoma (MCF-7) cell was seeded at 2 × 10^5 cells/well density and incubated for 24 h in six-well plates. Foetal bovine serum (10%) was added, and the cells were incubated at 37 °C in an atmosphere of 5% CO2. The medium was replaced with 1% (v/v) DMSO containing 10.0 μM of […]
with 70% ethanol, rinsed with phosphate-buffered saline, and then stained with the DNA fluorochrome propidium iodide (PI) for 15 min at 37 °C. Then, samples were analyzed by flow cytometry using a FACSCalibur (Becton Dickinson). The cell cycle distributions were calculated using CellQuest software (Becton Dickinson).
7. Caspase-8 and 9 activation assay
A breast carcinoma (MCF-7) cell line was obtained from ATCC. […]
allowed cells to grow at 37 °C, stimulated with the compounds to be tested for caspase-8 or caspase-9 and lysed with Cell Extraction Buffer. […]

Experiment [19] concerns RXF 393. The experiment in a line: NCI anticancer screening (SRB), Renal Cancer subpanel. The experiment is classed as cell-based, human. The note with it: for GI%: 10.0 µM in one dose.
Experiment [20] relates to HS 578T. Kind of experiment: NCI anticancer screening (SRB), Breast Cancer subpanel. The note with it: for GI%: 10.0 µM in one dose. The format is cell-based, human.
The test system of experiment [21] is NCI-H23. The experiment in a line: NCI anticancer screening (SRB), Non-Small Cell Lung Cancer subpanel. The experiment is classed as cell-based, human. The note with it: for GI%: 10.0 µM in one dose.
Experiment [22] has as its system HOP-62. The description is as above. The experiment is classed as cell-based, human. The note with it: for GI%: 10.0 µM in one dose.
Experiment [23] has as its system SK-OV-3. The experiment in a line: NCI anticancer screening (SRB), Ovarian Cancer subpanel. The format is cell-based, human. To be noted: for GI%: 10.0 µM in one dose.
The target in experiment [24] is T1, COX-2 (Ovis aries, UniProt P79208).
T1 construct: purchased Cayman Chemical 560101
T1 sequence (P79208 17-603): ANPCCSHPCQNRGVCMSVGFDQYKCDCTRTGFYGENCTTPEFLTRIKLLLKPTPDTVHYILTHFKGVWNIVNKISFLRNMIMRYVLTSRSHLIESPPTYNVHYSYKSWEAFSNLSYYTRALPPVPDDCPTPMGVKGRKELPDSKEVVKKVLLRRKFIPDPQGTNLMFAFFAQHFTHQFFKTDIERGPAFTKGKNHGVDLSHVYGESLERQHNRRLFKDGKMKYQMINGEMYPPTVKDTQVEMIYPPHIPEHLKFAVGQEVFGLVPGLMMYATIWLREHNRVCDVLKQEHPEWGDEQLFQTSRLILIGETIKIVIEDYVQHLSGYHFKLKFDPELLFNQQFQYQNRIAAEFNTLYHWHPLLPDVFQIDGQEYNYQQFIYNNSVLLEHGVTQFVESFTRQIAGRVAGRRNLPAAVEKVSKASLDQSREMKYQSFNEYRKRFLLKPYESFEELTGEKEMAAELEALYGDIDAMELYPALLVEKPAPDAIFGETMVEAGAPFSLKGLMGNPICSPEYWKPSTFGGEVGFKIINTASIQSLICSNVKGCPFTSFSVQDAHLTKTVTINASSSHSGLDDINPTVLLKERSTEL
Kind of experiment: biochemical. The note with it: read-out: IC50, COX-2 Inhibition. How it is done:
the measured protein at the end of the drug treatment as compared to that at the beginning) indicating a net loss of cells following treatment was calculated from [(Ti − Tz)/Tz] […] = − 50.
Values were calculated for each of these three parameters if the activity level was reached; however, if the effect was not reached or exceeded, that parameter's value was expressed as more or less than the maximum or minimum concentration tested. The log GI50, log TGI, and log LC50 were then determined and defined as the mean of the logs of the individual GI50, TGI, and LC50 values. The lowest values are obtained with the most sensitive cell lines. The compound with […]
2. In vitro cytotoxic activity towards normal fibroblast (WI-38) cells Cell Lines were obtained from the American Type Culture Collection; cells were cultured using DMEM (Invitrogen/Life Technologies) supplemented with 10% FBS (Hyclone), ten ug/ml of insulin (Sigma), and 1% penicillin–streptomycin. Cultures were removed from the incubator into a laminar flow hood, reconstituted with 3 mL of balanced salt solution without phenol red and serum, and then added to an amount equal to 10% of the culture medium volume. […]
medium volume. The absorbance was measured Spectrophotometrically at a wavelength of 570 […]
The ability of the test compounds to inhibit COX-2 was determined using an enzyme immunoassay […]

Experiment [25] relates to OVCAR-5. Kind of experiment: NCI anticancer screening (SRB), Ovarian Cancer subpanel. The format is cell-based, human. The note with it: for GI%: 10.0 µM in one dose.
The mark [26] stands for this setting: Homo sapiens, five concentrations.

These results are taken from PMC11728000, “Antitumor Activity and Multi-Target Mechanism of Phenolic Schiff Bases Bearing Methanesulfonamide Fragments: Cell Cycle Analysis and a Molecular Modeling Study” (International Journal of Molecular Sciences, 2024).

Like-named read-outs stand apart in the source and are kept apart here. Where only a bound is given, the exact number is not on record here.

With `C#Cc1cccc(Nc2ncnc3cc(OCCOC)c(OCCOC)cc23)c1` [Erlotinib, erlotinib], the GI50 (commonly the concentration at which growth is held to half of that of the control) is 25.1 µM in [1], 3.98 µM in experiment [2] and 6.31 µM in experiment [3].

On to `COc1cc2ncnc(Nc3ccc(F)c(Cl)c3)c2cc1OCCCN1CCOCC1` [Gefitinib, gefitinib], for which the GI50 in [2] is 0.316 µM; in experiment [3] it was 3.16 µM.

On to `Cc1ccc(-c2cc(C(F)(F)F)nn2-c2ccc(S(N)(=O)=O)cc2)cc1` [Celecoxib, celecoxib], for which, in experiment [1], the GI50 was 15.8 µM.

`CCN(CC)c1ccc(C=NNC(=O)c2ccc(NS(C)(=O)=O)cc2)c(O)c1` [Compound 8]: the GI% in experiment [4] is listed as 84%; in experiment [5], 69%; in experiment [6] it was 84%; in experiment [7] it was 76%; in experiment [9], 61%; in experiment [10], 87%. For the same compound, the GI% is given as 99% in experiment [11]; over 100% in experiment [12]; 62% in experiment [13]; 100% in experiment [14]; 100% in experiment [15]; 80% in experiment [16]. Further, the GI% in experiment [17] is listed as 89%; in [19], over 100%; in experiment [20] it was 44%; in experiment [21], 77%; in experiment [22], 87%; in experiment [23] it was 66%. Besides, the GI% in [25] came to 54%. The GI50 in experiment [4] (setting [26]) was 0.513 µM; in experiment [5] (setting [26]), 0.603 µM; in experiment [6] (setting [26]) it was 0.386 µM; in experiment [7] (Homo sapiens, U-251, five concentrations), 0.226 µM; in [9] (setting [26]), 0.986 µM; in experiment [10] (setting [26]), 0.346 µM. Besides, the GI50 in [11] (setting [26]) is 0.3 µM; in experiment [12] (setting [26]), 0.335 µM; in experiment [13] (setting [26]), 0.356 µM; in [14] (setting [26]) it was 0.375 µM; in experiment [15] (setting [26]), 0.209 µM; in experiment [16] (Homo sapiens, IGROV-1, five concentrations), 0.544 µM. Moreover, the GI50 in experiment [17] (setting [26]) is 0.141 µM; in [19] (setting [26]) it was 1.04 µM; in experiment [20] (setting [26]), 1.47 µM; in [21] (setting [26]), 1.16 µM; in [22] (setting [26]) it was 0.189 µM; in [23] (setting [26]) it was 0.45 µM. Moreover, it took 1.89 µM to inhibit growth in experiment [25] (setting [26]) by half (GI50). The IC50 (commonly the point on the concentration scale where inhibition reaches its midpoint) came out at 0.464 ± 0.018 µM in [8] and 12.8 ± 0.51 µM in experiment [24]. Further, in experiment [18], the “Bcl2, Gene Expression (Fold Change)” value came to 0.232 fold change.

With `CS(=O)(=O)Nc1ccc(C(=O)NN=Cc2ccccc2O)cc1` [Compound 7], the GI% was determined as 46% in experiment [4]; 23% in experiment [5]; 26% in [6]; 56% in experiment [7]; 25% in [9]; 64% in [10]. In addition, the GI% in experiment [11] came out at 22%; in experiment [12] it was 24%; in [13] it was 41%; in [14] it was 35%; in experiment [15], 53%; in experiment [16], 25%. Further, the GI% in [17] is 67%; in [19], 21%; in [20], 11%; in [21] it was 27%; in [22] it was 61%; in [23], 42%. The compound further came in with a GI% in experiment [25] of 23%. The IC50 in experiment [8] came out at 0.183 ± 0.011 µM; in experiment [24], 20.9 ± 0.82 µM. Also, the “Bcl2, Gene Expression (Fold Change)” value in experiment [18] was 0.201 fold change.
